Reference: patent US9809697B2, “Crosslinking agent, crosslinked polymer, and compound” (THE NIPPON SYNTHETIC CHEMICAL INDUSTRY CO., LTD., priority 2013, dated 2017)

Assay: Solubility in water
Type: physicochemical
Conditions: solubility in 100 g of water at 23° C.
Description: The white solid obtained above was examined for solubility in 100 g of water at 23° C.

In the case of `CN(N)C(=O)CCCCC(=O)N(C)N` [formula (4)], the “Crosslinking agent Solubility” value is reported as 150 g.

In the case of `NNC(=O)CCCCC(=O)NN` [ADH, adipic acid dihydrazide], the “Crosslinking agent Solubility” value is reported as 12.5 g.
